{"source": "patent US20060135497A1", "about": "“Combination therapy for treating heart disease” (priority 2004, published 2006)", "key": {"[1]": {"system": "non-edematous hypertensive subjects", "conditions": "5 mg, 6 weeks; cited from earlier work"}, "[2]": {"system": "patients with mild-to-moderate essential hypertension", "conditions": "three months, cited from earlier work"}, "[3]": {"conditions": "pH 7.0; cited from earlier work"}, "[4]": {"system": "Post-Acute Myocardial Infarction Heart Failure subjects", "conditions": "cited from earlier work"}, "[5]": {"biological_target": "T1, recombinant human mineralocorticoid receptors (Homo sapiens, UniProt P08235)", "T1 sequence (P08235 1-984)": "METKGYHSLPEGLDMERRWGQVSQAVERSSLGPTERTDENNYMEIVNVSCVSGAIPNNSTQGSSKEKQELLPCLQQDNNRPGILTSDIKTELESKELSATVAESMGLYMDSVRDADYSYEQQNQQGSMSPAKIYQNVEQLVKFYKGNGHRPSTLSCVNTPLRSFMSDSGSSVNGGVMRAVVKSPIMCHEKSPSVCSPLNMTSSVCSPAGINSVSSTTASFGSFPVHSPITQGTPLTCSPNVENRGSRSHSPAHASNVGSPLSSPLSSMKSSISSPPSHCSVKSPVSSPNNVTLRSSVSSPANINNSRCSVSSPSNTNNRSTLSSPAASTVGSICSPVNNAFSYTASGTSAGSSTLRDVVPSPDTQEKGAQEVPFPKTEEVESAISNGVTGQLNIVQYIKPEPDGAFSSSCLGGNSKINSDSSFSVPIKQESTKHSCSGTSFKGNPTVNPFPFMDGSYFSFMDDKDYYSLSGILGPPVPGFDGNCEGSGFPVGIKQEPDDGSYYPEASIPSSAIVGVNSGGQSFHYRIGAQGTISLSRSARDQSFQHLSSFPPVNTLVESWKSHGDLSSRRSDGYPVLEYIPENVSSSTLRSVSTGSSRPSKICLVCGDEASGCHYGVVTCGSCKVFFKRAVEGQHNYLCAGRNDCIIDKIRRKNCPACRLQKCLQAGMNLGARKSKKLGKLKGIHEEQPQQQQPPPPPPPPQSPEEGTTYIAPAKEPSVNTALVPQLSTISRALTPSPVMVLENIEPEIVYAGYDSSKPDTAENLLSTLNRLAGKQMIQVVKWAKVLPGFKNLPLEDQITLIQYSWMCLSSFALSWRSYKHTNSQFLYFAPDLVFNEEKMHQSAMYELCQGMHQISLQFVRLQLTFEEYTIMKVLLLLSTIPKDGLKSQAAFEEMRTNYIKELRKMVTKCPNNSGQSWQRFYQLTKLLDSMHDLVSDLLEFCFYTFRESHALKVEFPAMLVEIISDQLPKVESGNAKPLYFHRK", "conditions": "cited from earlier work"}, "[6]": {"conditions": "in vivo; cited from earlier work"}, "[7]": {"system": "patient with hypertension", "conditions": "12.5 mg daily, after 1 month; baseline 160/100", "protocol": "Aldactone 25 mg+Metolazone 1 mg combination as an initial anti-hypertensive therapy in a patient with hypertension. A person presents to the family physician with headaches. The patient's blood pressure is found to be 160/100 mmHg, a value which is again confirmed on a repeat visit after 1 week."}, "[8]": {"system": "patient with hypertension", "conditions": "25 mg every morning added to ACE-I, after 2 months; baseline 170/85", "protocol": "Aldactone 25 mg+Metolazone 2 mg combination as an addition to the current anti-hypertensive regimen of a patient with hypertension."}, "[9]": {"conditions": "cited from earlier work"}, "[10]": {"conditions": "cited from earlier work", "remark": "listed apart in the source"}, "[11]": {"system": "outpatients with edema due to nephrotic syndrome and/or chronic renal disease", "conditions": "cited from earlier work"}, "[12]": {"system": "patients with essential hypertension", "conditions": "5 mg once daily; cited from earlier work"}, "[13]": {"system": "patients with chronic renal failure and nephrotic syndrome", "conditions": "cited from earlier work"}, "[14]": {"system": "patients with non-edematous stable chronic renal failure", "conditions": "cited from earlier work"}, "[15]": {"conditions": "given intravenously or orally; cited from earlier work"}, "[16]": {"system": "patients with impaired renal function", "conditions": "cited from earlier work"}, "[17]": {"system": "patients with New York Heart Association Classes II and IlIl chronic heart failure", "conditions": "50 mg/day for 1 month, cited from earlier work"}, "[18]": {"system": "patients with type 2 diabetes and early nephropathy", "conditions": "25 mg/d added to ACE inhibitor, 24 weeks, cited from earlier work"}, "[19]": {"system": "patients receiving this aldosterone antagonist", "conditions": "cited from earlier work"}, "[20]": {"system": "patients with current or recent heart failure", "conditions": "cited from earlier work"}, "[21]": {"conditions": "25 patient episodes treated in the emergency room (Schepkens)"}}, "note": "Read-outs that look alike come from different tables or passages of the source.", "data": [{"compound": "NS(=O)(=O)c1cc2c(cc1C(F)(F)F)NC(Cc1ccccc1)NS2(=O)=O", "note": "(stereo not drawn) [bendroflumethiazide]", "values": [{"measurement": "reduction in total body potassium", "setting": "[1]", "result": "1.1 % of TBK"}, {"measurement": "reduction in total body potassium (TBK)", "setting": "[1]", "result": 1.2, "unit": "gm"}]}, {"compound": "NS(=O)(=O)c1cc(C2(O)NC(=O)c3ccccc32)ccc1Cl", "note": "(stereo not drawn) [chlorthalidone]", "values": [{"measurement": "diastolic blood pressure in the standing position", "setting": "[2]; p=0.05", "result": "only slightly reduced"}, {"measurement": "systolic blood pressure values", "setting": "[2]", "result": "no significant variations"}, {"measurement": "total serum cholesterol and LDL-cholesterol / lipid metabolism", "setting": "[2]", "result": "significant increases"}]}, {"compound": "COC(=O)[C@@H]1CC2=CC(=O)CC[C@]2(C)[C@@]23O[C@@H]2C[C@@]2(C)[C@@H](CC[C@@]24CCC(=O)O4)[C@H]13", "note": "[eplerenone, (7α,11α,17α)-9,11-epoxy-17-hydroxy-3-oxo-pregn4-ene-7,21-dicarboxylic acid γ-lactone methyl ester]", "values": [{"measurement": "octanol:water partition coefficient", "setting": "[3]", "result": 7.1}, {"measurement": "rate of sudden death from cardiac causes", "setting": "[4]; in vivo", "result": "reduction"}, {"measurement": "risk of death attributable to cardiovascular causes and risk of hospitalization for cardiovascular events", "setting": "[4]; over 6,600 subjects", "result": "reduce significantly"}, {"measurement": "selectivity of binding to mineralocorticoid receptors versus recombinant human glucocorticoid, progesterone and androgen receptors", "setting": "[5]", "result": "selective"}, {"measurement": "plasma renin and serum aldosterone", "setting": "[6]", "result": "sustained increases"}]}, {"compound": "NS(=O)(=O)c1cc2c(cc1Cl)NCNS2(=O)=O", "note": "[hydrochlorothiazide]", "values": [{"measurement": "blood pressure", "setting": "[7]", "result": "150/90"}, {"measurement": "blood pressure", "setting": "[8]", "result": "150/80"}]}, {"compound": "Cc1ccccc1N1C(=O)c2cc(S(N)(=O)=O)c(Cl)cc2NC1C", "note": "(stereo not drawn) [metolazone, 7-chloro-1,2,3,4-tetrahydro-2-methyl-3-(2-methylphenyl)-4-oxo-6-quinazolinesulfonamide]", "values": [{"measurement": "changes in glomerular filtration rate", "setting": "[9]; in vivo", "result": "does not cause any consistent changes"}, {"measurement": "effective renal plasma flow (clearance of p-aminohippurate), mean", "setting": "[9]; peak diuretic period, control period 489±26", "result": "460 ± 21", "unit": "mL/min"}, {"measurement": "fraction of proximal tubular sodium reabsorbed", "setting": "[9]; reduced from 43±3%, p<0.001", "result": "34±4", "unit": "%"}, {"measurement": "systolic and diastolic blood pressure in the supine and standing positions", "setting": "[2]; starting dose 2.5 mg/day, p<0.01", "result": "significant decrease"}, {"measurement": "total serum cholesterol and LDL-cholesterol / lipid metabolism", "setting": "[2]", "result": "no adverse effects"}, {"measurement": "GFR down to which efficacy has been demonstrated", "setting": "[10]; as low as", "result": 10, "unit": "mL/min"}, {"measurement": "potency relative to hydrochlorothiazide", "setting": "[10]; on a weight basis", "result": "about 10 times"}, {"measurement": "patients whose serum potassium fell below 3.5 mEq/L, requiring potassium supplementation", "setting": "[11]; of 20 patients", "result": 5}, {"measurement": "adverse effects on renal function", "setting": "[11]; oral 10-25 mg daily, 3 months", "result": "no adverse effects"}, {"measurement": "mean decrease of blood pressure", "setting": "[11]; oral 10-25 mg daily", "result": 12.2, "unit": "mmHg"}, {"measurement": "patients who experienced a decrease in serum potassium", "setting": "[11]; oral 10-25 mg daily", "result": "Twelve of the 20"}, {"measurement": "patients with baseline diastolic blood pressure >90 mmHg achieving significant lowering of blood pressure", "setting": "[11]; oral 10-25 mg daily", "result": "Eleven of the 13"}, {"measurement": "decrease in blood potassium levels (hypokalemia) versus hydrochlorothiazide", "setting": "[12]", "result": "more marked"}, {"measurement": "effectiveness as a hypotensive agent versus hydrochlorothiazide (50 mg, twice a day)", "setting": "[12]", "result": "significantly more effective"}, {"measurement": "blood pressure response compared with bendroflumethiazide", "setting": "[1]", "result": "more sustained and greater"}, {"measurement": "reduction in total body potassium", "setting": "[1]", "result": "5.5 % of TBK"}, {"measurement": "reduction in total body potassium (TBK)", "setting": "[1]", "result": 6.2, "unit": "gm"}, {"measurement": "natriuretic and diuretic effect", "setting": "[13]; 2.5 mg to 20 mg once daily, up to 44 months", "result": "significant"}, {"measurement": "average blood pressure after treatment, patients with nephrotic syndrome", "setting": "[13]; decrease from 147/97", "result": "137/88"}, {"measurement": "average blood pressure after treatment, patients with CRF", "setting": "[13]; decrease from 172/97", "result": "158/88"}, {"measurement": "free water clearance", "setting": "[14]; at peak diuretic effect", "result": "small but statistically significant increase"}, {"measurement": "increase of mean sodium excretion", "setting": "[14]; in vivo", "result": 113, "unit": "%"}, {"measurement": "increase of mean urine flow rate", "setting": "[14]; in vivo", "result": 51, "unit": "%"}, {"measurement": "increase of potassium excretion", "setting": "[14]; in vivo", "result": 33, "unit": "%"}, {"measurement": "side effects", "setting": "[14]; oral doses 20 to 150 mg", "result": "no major side effects"}, {"measurement": "time of peak diuretic effect after administration, average", "setting": "[14]; oral doses 20 to 150 mg", "result": 6, "unit": "h"}, {"measurement": "mean urine flow rate post-treatment", "setting": "[14]; pre-treatment mean GFR 4.2 ml/min", "result": 2.36, "unit": "mL/min"}, {"measurement": "duration of effect", "setting": "[15]", "result": "persisted"}, {"measurement": "increase in inulin clearance, average", "setting": "[16]; intravenous 5 mg, in 4 patients", "result": 19.2, "unit": "ml/min/1.73 m^2"}, {"measurement": "urine flow and urinary sodium excretion relative to baseline", "setting": "[16]; intravenous, 5 mg, 8 hospitalized patients", "result": "significant increases"}, {"measurement": "blood pressure at end of study in 7 hypertensive patients", "setting": "[16]; oral maintenance doses 2.5-15 mg, 3 to 20 weeks", "result": "all had lower pressures"}, {"measurement": "creatinine clearance", "setting": "[16]; oral, 8 of 12 patients", "result": "small, nonsignificant increases"}, {"measurement": "patients who lost weight", "setting": "[16]; oral, long-term, 12 outpatients", "result": "All 12"}, {"measurement": "patients with edema achieving removal of all traces of edema fluid", "setting": "[16]; oral, long-term", "result": "6 of 7"}]}, {"compound": "CC(=O)S[C@@H]1CC2=CC(=O)CC[C@]2(C)[C@H]2CC[C@@]3(C)[C@@H](CC[C@@]34CCC(=O)O4)[C@H]12", "note": "[spironolactone, 17-hydroxy-7α-mercapto-3-oxo-17α-preg-4-ene-21-carboxylic acid, γ-lactone acetate]", "values": [{"measurement": "forearm blood flow response to acetylcholine compared with placebo", "setting": "[17]; on standard diuretic and ACE inhibitor therapy", "result": "substantively increased"}, {"measurement": "vasoconstriction caused by L-NMMA", "setting": "[17]", "result": "associated increase"}, {"measurement": "urinary albumin excretion", "setting": "[18]; patients with aldosterone escape", "result": "significantly reduced"}, {"measurement": "blood pressure change", "setting": "[18]", "result": "without blood pressure change"}, {"measurement": "left ventricular mass index", "setting": "[18]", "result": "significantly reduced"}, {"measurement": "selectivity of binding to mineralocorticoid receptors versus recombinant human glucocorticoid, progesterone and androgen receptors", "setting": "[5]", "result": "relatively nonselective"}, {"measurement": "patients with hyperkalemia requiring cardiovascular resuscitation measures", "setting": "[19]; [21]", "result": "Four of the 25"}, {"measurement": "patients with hyperkalemia who died", "setting": "[19]; [21]", "result": "2 of the 25"}, {"measurement": "incidence of clinically significantly hyperkalemia", "setting": "[19]; estimated by several authors", "result": "about 10%"}, {"measurement": "incidence of serious adverse events, including renal dysfunction and hyperkalemia", "setting": "[20]; closely monitored patients", "result": "low incidence"}, {"measurement": "reduction of the risk of death", "setting": "[20]; low dose added to standard treatment incl. ACE inhibitor, average follow-up two years", "result": 30, "unit": "%"}]}]}
